Test results: patent US7476673B2, “Disubstituted chalcone oximes as selective agonists of RARγ retinoid receptors” (Allergan, Inc., priority 2003, dated 2009)

Experiments:
RARα [1] = target: T1, RARα (Homo sapiens, UniProt P10276); test: ligand binding assay, RARα; conditions: results expressed in Ki numbers, read-out: RAR Binding α
T1 sequence (P10276 1-462): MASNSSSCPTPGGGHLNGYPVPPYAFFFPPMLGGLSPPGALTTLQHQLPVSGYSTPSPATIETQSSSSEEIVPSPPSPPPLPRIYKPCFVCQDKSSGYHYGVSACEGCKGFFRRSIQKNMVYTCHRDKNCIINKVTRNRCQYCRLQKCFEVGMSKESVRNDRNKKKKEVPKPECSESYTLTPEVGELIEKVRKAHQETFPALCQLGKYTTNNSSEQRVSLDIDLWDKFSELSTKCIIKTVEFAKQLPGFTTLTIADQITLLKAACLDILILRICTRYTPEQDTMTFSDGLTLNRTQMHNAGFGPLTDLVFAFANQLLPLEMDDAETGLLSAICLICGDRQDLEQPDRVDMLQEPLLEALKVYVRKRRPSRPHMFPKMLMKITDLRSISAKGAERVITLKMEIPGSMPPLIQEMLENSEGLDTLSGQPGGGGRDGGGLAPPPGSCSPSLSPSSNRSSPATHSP
Source text: (§1) A holoreceptor transactivation assay and a ligand binding assay which measure the antagonist/agonist like activity of the compounds of the invention, or their ability to bind to the several retinoid receptor subtypes, respectively, are described in published PCT Application No. WO WO93/11755 (particularly on pages 30-33 and 37-41) published on Jun. 24, 1993, the specification of which is also incorporated herein by reference. A detailed experimental procedure for holoreceptor transactivations has been described by Heyman et al. Cell 68, 397-406, (1992); Allegretto et al. J. Biol. Chem. 268, 26625-26633, and Mangelsdorf et al. The Retinoids: Biology, Chemistry and Medicine, pp 319-349, Raven Press Ltd., New York, which are expressly incorporated herein by reference. The results obtained in this assay are expressed in EC50 numbers, as they are also in the chimeric receptor transactivation assay. The results of the ligand binding assay are expressed in Ki numbers. (See Cheng et al. Biochemical Pharmacology Vol. 22 pp 3099-3108, expressly incorporated herein by reference.)
(§2) Table 1 discloses the activity of certain exemplary compounds of the invention in the above-described chimeric RAR receptor transactivation and binding assays.

RARα [2] = target: T2, RARα (Homo sapiens, UniProt P10276); test: chimeric receptor transactivation assay, RARα; assay type: cell-based; conditions: for EC50: chimeric receptor transactivation, read-out: RAR EC50 α; for % Efficiency α: percentage of maximum compared to standard TTNPB
T2 sequence (P10276 183-417 limits assumed): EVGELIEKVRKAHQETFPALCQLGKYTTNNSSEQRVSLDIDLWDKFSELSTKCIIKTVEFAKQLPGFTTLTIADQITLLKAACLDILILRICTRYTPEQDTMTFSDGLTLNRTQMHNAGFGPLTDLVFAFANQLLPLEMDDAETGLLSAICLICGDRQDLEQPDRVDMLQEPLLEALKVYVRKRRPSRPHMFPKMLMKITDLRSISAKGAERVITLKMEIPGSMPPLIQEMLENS
Protocol: (§3) The compounds of the invention were tested in certain assays for activity as agonists of RAR and RXR retinoid receptors. Specifically, one such assay is a chimeric receptor transactivation assay which tests for agonist-like activity in the RARα, RARβ and RARγ receptor subtypes, and which is based on work published by Feigner P. L. and Holm M. (1989) Focus, 112 is described in detail in U.S. Pat. No. 5,455,265. The specification of U.S. Pat. No. 5,455,265 is hereby expressly incorporated by reference.
as §1
(§4) Efficacy in a transactivation assay is expressed as a percentage of the maximum potency attained by the compound compared to a standard which, in this case, is the compound 4-[(1E)-2-(5,6,7,8-tetrahydro-5,5,8,8-tetramethyl-2-naphthalenyl)-1-propenyl]-benzoic acid. (TTNPB) This standard compound is described in PCT Publication WO 2002077169 A2.
as §2

RARγ [3] = target: T3, RARγ (Homo sapiens, UniProt P13631); test: chimeric receptor transactivation assay, RARγ; assay type: cell-based; conditions: for EC50: chimeric receptor transactivation, read-out: RAR EC50 γ; for % Efficiency γ: percentage of maximum compared to standard TTNPB
T3 construct: % Efficiency γ; other: percentage of maximum compared to standard TTNPB
T3 sequence (P13631 185-454 limits assumed): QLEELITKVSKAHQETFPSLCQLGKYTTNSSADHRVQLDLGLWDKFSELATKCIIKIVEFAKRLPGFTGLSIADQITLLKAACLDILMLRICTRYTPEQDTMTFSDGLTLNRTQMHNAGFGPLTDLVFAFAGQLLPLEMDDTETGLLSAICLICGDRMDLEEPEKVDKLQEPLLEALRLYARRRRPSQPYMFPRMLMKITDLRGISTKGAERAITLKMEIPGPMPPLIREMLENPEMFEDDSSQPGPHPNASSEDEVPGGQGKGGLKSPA
Protocol: as §3, §1, §4, §2

RARβ [4] = target: T4, RARβ (Homo sapiens, UniProt P10826); test: ligand binding assay, RARβ; conditions: results expressed in Ki numbers, read-out: RAR Binding β
T4 sequence (P10826 1-455): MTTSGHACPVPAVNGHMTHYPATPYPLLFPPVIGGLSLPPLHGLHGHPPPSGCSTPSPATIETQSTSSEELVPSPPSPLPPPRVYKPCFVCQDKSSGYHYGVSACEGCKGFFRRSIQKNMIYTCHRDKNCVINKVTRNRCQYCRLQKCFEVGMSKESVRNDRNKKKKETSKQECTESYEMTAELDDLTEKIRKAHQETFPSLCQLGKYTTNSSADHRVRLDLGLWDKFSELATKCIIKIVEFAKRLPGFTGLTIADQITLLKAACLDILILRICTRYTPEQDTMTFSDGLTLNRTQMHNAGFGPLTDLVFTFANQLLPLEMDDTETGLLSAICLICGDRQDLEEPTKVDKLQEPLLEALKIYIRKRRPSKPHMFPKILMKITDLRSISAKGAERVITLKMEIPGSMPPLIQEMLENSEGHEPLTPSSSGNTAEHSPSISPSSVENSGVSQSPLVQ
Source text: as §1, §2

RARβ [5] = target: T5, RARβ (Homo sapiens, UniProt P10826); test: chimeric receptor transactivation assay, RARβ; assay type: cell-based; conditions: for EC50: chimeric receptor transactivation, read-out: RAR EC50 β; for % Efficiency β: percentage of maximum compared to standard TTNPB
T5 sequence (P10826 183-455 limits assumed): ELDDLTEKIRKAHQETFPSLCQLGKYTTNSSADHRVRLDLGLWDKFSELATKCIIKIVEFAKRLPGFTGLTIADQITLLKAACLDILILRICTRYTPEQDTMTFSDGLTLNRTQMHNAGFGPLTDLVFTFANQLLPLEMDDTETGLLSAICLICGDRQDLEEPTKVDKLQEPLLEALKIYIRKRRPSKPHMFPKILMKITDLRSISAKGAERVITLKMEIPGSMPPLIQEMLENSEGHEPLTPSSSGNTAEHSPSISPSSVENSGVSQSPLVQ
Protocol: as §3, §1, §4, §2

RARγ [6] = target: T6, RARγ (Homo sapiens, UniProt P13631); test: ligand binding assay, RARγ; conditions: results expressed in Ki numbers, read-out: RAR Binding γ
T6 sequence (P13631 1-454): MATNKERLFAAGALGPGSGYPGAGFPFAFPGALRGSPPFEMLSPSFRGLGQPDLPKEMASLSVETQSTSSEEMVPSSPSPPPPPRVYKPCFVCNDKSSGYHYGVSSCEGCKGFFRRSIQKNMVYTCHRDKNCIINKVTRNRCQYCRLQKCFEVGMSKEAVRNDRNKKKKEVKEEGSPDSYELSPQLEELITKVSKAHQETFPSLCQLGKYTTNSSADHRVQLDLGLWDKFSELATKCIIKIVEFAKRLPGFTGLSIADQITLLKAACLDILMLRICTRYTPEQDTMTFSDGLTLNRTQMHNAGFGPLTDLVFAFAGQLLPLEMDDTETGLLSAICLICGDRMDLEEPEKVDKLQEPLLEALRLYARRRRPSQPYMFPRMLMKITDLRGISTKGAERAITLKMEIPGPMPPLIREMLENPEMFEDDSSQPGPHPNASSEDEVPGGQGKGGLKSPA
Source text: as §1, §2

| Structure (SMILES) | Ki (RARα [1]) [µM] | EC50 (RARα [2]) [µM] | % Efficiency α (RARα [2]) [%] | EC50 (RARγ [3]) [µM] | % Efficiency γ (RARγ [3]) [%] | Ki (RARβ [4]) [µM] | EC50 (RARβ [5]) [µM] | % Efficiency β (RARβ [5]) [%] | Ki (RARγ [6]) [µM] |
| --- | --- | --- | --- | --- | --- | --- | --- | --- | --- |
| CC1(C)CCC(C)(C)c2cc(C(C=Cc3ccc(C(=O)O)cc3)=NO)ccc21 [drawing 9] | 2.4 | 0.15 | 81 | 0.00037 | 114 | 2 | 0.034 | 112 | 0.014 |
| CC1(C)CCSc2ccc(C(C=Cc3ccc(C(=O)O)cc3)=NO)cc21 [drawing 18] | 5 | 0.242 | 117 | 0.00075 | 88 | 1.08 | 0.079 | 87 | 0.006 |
| CC1=CCC(C)(C)c2cc(C(/C=C/c3ccc(C(=O)O)cc3F)=N/O)ccc21 | 7 | > 1 |  | 0.002 | 92 | 11 | 0.168 | 86 | 0.256 |
| CCCCCCCN1C(=O)CC(C)(C)c2cc(C(C=Cc3ccc(C(=O)O)cc3)=NO)ccc21 | 11 | > 1 |  | 0.01 | 11 | 29 |  |  | 0.051 |
| CC1(C)CC(C)(C)c2cc(C(C=Cc3ccc(C(=O)O)cc3F)=NO)ccc21 | 14 | > 1 |  | 0.001 | 72 | 25 | 0.114 | 79 | 0.025 |
| CC1(C)CCCc2ccc(C(C=Cc3ccc(C(=O)O)cc3)=NO)cc21 [drawing 14] | 22 | > 1 |  | 0.003 | 98 | 4.7 | 0.432 | 88 | 0.016 |
| CC1(C)CCC(C)(C)c2nc(C(C=Cc3ccc(C(=O)O)cc3)=NO)cnc21 [drawing 34] | 27 | 4 | 41 | 0.01 | 123 |  | 0.105 | 88 | 0.24 |
| CC1=CCC(C)(C)c2cc(C(/C=C/c3ccc(C(=O)O)cc3)=N/O)ccc21 | 3 | 7 | 38 | 0.0003 | 91 | 1.3 | 0.054 | 95 | 0.006 |
